# Assay results: patent publication US9770446B2, “Piperidine urea derivatives” (MERCK PATENT GMBH, priority 2013, dated 2017)
# How the values were obtained:
# [1] = target: T1, GST-tagged Tnks-1 (1023-1327 aa) (Homo sapiens, UniProt O95271); experiment: TNKS1 activity ELISA (autoparsylation assay); assay type: biochemical
# T1 construct: GST-tagged Tnks-1 (1023-1327 aa, prepared in-house); made in house
# Method in brief: (§1)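 Each GST-tagged enzyme (20 ng/well) was captured overnight at 4 °C on glutathione plates, then auto-ADP-ribosylated with 10 μM biotin-NAD for 1 h at 30 °C, pH 7.7, 0.5% DMSO, compound at 10 concentrations. Streptavidin-HRP chemiluminescence measured the signal. IC50 relative to inhibitor-free reaction, with 5 μM XAV-939 defining zero.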
# Tankyrase = experiment: Cellular inhibition of Tankyrase: Axin2 level in DLD1 cells (Luminex); assay type: cell-based; details: 24 hours, Axin2 increase, read-out: EC50 [M] TNKS cellular assay
# Method in brief: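 DLD1 colon carcinoma cells treated 24 h with seven-step serial dilutions in triplicate (0.3% DMSO final). Axin2 in cleared lysates captured on anti-Axin2 beads, detected with polyclonal anti-Axin2 plus PE secondary, and quantified by Luminex. EC50 from data normalized to solvent control; IWR-2 (3E-06 M) marks maximal Axin2 increase.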
# [2] = target: T2, GST-tagged Tnks-2 (873-1166 aa) (Homo sapiens, UniProt Q9H2K2); experiment: TNKS2 activity ELISA (autoparsylation assay); assay type: biochemical
# T2 construct: GST-tagged Tnks-2 (873-1166 aa, prepared in-house); made in house
# Method in brief: as §1
# T1 sequence (O95271 1023-1327): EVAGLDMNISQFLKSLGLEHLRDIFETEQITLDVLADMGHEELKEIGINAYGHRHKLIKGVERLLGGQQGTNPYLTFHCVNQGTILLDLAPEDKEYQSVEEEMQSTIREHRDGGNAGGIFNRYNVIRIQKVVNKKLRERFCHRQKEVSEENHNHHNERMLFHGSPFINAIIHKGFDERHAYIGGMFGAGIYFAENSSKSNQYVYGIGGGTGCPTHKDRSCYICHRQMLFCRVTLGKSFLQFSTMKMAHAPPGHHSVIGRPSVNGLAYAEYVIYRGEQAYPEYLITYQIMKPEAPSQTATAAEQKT
# T2 sequence (Q9H2K2 873-1166): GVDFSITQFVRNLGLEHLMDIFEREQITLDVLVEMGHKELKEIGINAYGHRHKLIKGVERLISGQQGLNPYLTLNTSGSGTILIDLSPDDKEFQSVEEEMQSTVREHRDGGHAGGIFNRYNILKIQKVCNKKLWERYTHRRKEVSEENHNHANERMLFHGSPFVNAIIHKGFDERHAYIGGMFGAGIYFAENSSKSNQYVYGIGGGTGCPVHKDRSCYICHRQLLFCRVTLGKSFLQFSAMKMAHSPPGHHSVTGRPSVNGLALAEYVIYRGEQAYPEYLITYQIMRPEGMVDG
Compound,IC50 [1],EC50 (Tankyrase),IC50 [2]
"CCN(C(=O)N1CCC(C(=O)c2cccc(C)c2)CC1)c1ccc(OC)cc1 [Compound A26, 4-(3-methyl-benzoyl)-piperidine-1-carboxylic acid ethyl-(4-methoxy-phenyl)amide]",< 0.3 µM,< 3e-07 M,< 0.3 µM
"COc1ccc(N(C)C(=O)N2CCC(C(=O)c3cccc(C)c3)CC2)cc1 [Compound A25, 4-(3-methyl-benzoyl)-piperidine-1-carboxylic acid (4-methoxy-phenyl)methyl-amide]",< 0.3 µM,< 3e-07 M,< 0.3 µM
"COc1ccc(N(C)C(=O)N2CCC(C(=O)c3cccc(F)c3)CC2)cc1 [Compound A7, 4-(3-fluoro-benzoyl)-piperidine-1-carboxylic acid (4-methoxy-phenyl)-methylamide]",< 0.3 µM,3e-07 to 3e-06 M,< 0.3 µM
"CN(C(=O)N1CCC(C(=O)c2ccc(NS(C)(=O)=O)cc2)CC1)c1ccccc1 [Compound A38, 4-(4-methanesulfonylamino-benzoyl)-piperidine-1-carboxylic acid methyl-phenyl-amide]",< 0.3 µM,3e-07 to 3e-06 M,< 0.3 µM
"COc1ccc(N(C)C(=O)N2CCC(C(=O)c3ccc(F)cc3)CC2)cc1 [Compound A8, 4-(4-fluoro-benzoyl)-piperidine-1-carboxylic acid (4-methoxy-phenyl)-methylamide]",< 0.3 µM,< 3e-07 M,< 0.3 µM
"COc1ccc(N(C)C(=O)N2CCC(C(=O)c3ccccc3)CC2)cc1 [Compound A4, 4-benzoyl-piperidine-1-carboxylic acid (4-methoxy-phenyl)-methyl-amide]",< 0.3 µM,3e-07 to 3e-06 M,< 0.3 µM
"COc1ccc(C(=O)C2CCN(C(=O)N3CCc4ccccc43)CC2)cc1 [Compound A18, (2,3-dihydro-indol-1-yl)-[4-(4-methoxy-benzoyl)-piperidin-1-yl]-methanone]",< 0.3 µM,3e-07 to 3e-06 M,< 0.3 µM
"COc1ccc(C(=O)C2CCN(C(=O)N(C)c3ccc(OC)cc3)CC2)cc1 [Compound A6, 4-(4-methoxy-benzoyl)-piperidine-1-carboxylic acid (4-methoxy-phenyl)methyl-amide]",< 0.3 µM,< 3e-07 M,< 0.3 µM
"CCN(C(=O)N1CCC(C(=O)c2ccccc2)CC1)c1ccc(OC)cc1 [Compound A14, 4-benzoyl-piperidine-1-carboxylic acid ethyl-(4-methoxy-phenyl)-amide]",< 0.3 µM,< 3e-07 M,< 0.3 µM
"Cc1cccc(N(C)C(=O)N2CCC(C(=O)c3ccccc3)CC2)c1 [Compound A1, 4-benzoyl-piperidine-1-carboxylic acid methyl-m-tolyl-amide]",< 0.3 µM,3e-07 to 3e-06 M,< 0.3 µM
"CCN(C(=O)N1CCC(C(=O)c2ccc(OC)c(C)c2)CC1)c1ccc(OC)cc1 [Compound A24, 4-(4-methoxy-3-methyl-benzoyl)-piperidine-1-carboxylic acid ethyl-(4-methoxy-phenyl)-amide]",< 0.3 µM,< 3e-07 M,< 0.3 µM
"COc1ccc(N(C)C(=O)N2CCC(C(=O)c3cccc(OC)c3)CC2)cc1 [Compound A27, 4-(3-methoxy-benzoyl)-piperidine-1-carboxylic acid (4-methoxy-phenyl)methyl-amide]",< 0.3 µM,< 3e-07 M,< 0.3 µM
"CCOC(=O)CN(C(=O)N1CCC(C(=O)c2ccc(OC)cc2)CC1)c1ccccc1 [Compound A40, {[4-(4-methoxy-benzoyl)-piperidine-1-carbonyl]-phenyl-amino}-acetic acid ethyl ester]",< 0.3 µM,< 3e-07 M,< 0.3 µM
"CN(C(=O)N1CCC(C(=O)c2ccccc2)CC1)c1ccc(F)cc1 [Compound A13, 4-benzoyl-piperidine-1-carboxylic acid (4-fluoro-phenyl)-methyl-amide]",< 0.3 µM,3e-07 to 3e-06 M,< 0.3 µM
"Cc1ccc(N(C)C(=O)N2CCC(C(=O)c3ccccc3)CC2)cc1 [Compound A2, 4-benzoyl-piperidine-1-carboxylic acid methyl-p-tolyl-amide]",< 0.3 µM,3e-07 to 3e-06 M,< 0.3 µM
"Cc1ccc(C(=O)C2CCN(C(=O)N3CCc4ccccc43)CC2)cc1 [Compound A17, (2,3-dihydro-indol-1-yl)-[4-(4-methyl-benzoyl)-piperidin-1-yl]-methanone]",< 0.3 µM,3e-07 to 3e-06 M,< 0.3 µM
"CCN(C(=O)N1CCC(C(=O)c2cccc(OC)c2)CC1)c1ccc(OC)cc1 [Compound A28, 4-(3-methoxy-benzoyl)-piperidine-1-carboxylic acid ethyl-(4-methoxy-phenyl)amide]",< 0.3 µM,< 3e-07 M,< 0.3 µM
"COc1ccc(N(C)C(=O)N2CCC(C(=O)c3ccc(OC)c(F)c3)CC2)cc1 [Compound A29, 4-(3-fluoro-4-methoxy-benzoyl)-piperidine-1-carboxylic acid (4-methoxy-phenyl)-methyl-amide]",< 0.3 µM,< 3e-07 M,< 0.3 µM
"COc1ccc(N(C)C(=O)N2CCC(C(=O)c3ccc(C)cc3)CC2)cc1 [Compound A5, 4-(4-methyl-benzoyl)-piperidine-1-carboxylic acid (4-methoxy-phenyl)-methylamide]",< 0.3 µM,< 3e-07 M,< 0.3 µM
"O=C(c1ccccc1)C1CCN(C(=O)N2CCc3ccccc32)CC1 [Compound A16, (4-benzoyl-piperidin-1-yl)-(2,3-dihydro-indol-1-yl)-methanone]",< 0.3 µM,3e-06 to 5e-05 M,< 0.3 µM
"COc1ccc(N(CCO)C(=O)N2CCC(C(=O)c3ccccc3)CC2)cc1 [Compound A15, 4-benzoyl-piperidine-1-carboxylic acid (2-hydroxy-ethyl)-(4-methoxy-phenyl)amide]",< 0.3 µM,3e-07 to 3e-06 M,< 0.3 µM
